Reference: ChEMBL document CHEMBL1201862, “PubChem BioAssay data set” (2004)
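All cell lines were grown in 96-well plates and treated with compound for 48 hours. GI50 is the concentration that inhibits growth by half.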 The source made the active and inactive calls. No stated cut-off is given here; in the data, active = GI50 up to about 1.1 µM and inactive = higher.

How the values were obtained:
Assay in all cases: DTP human tumour cell line panel, 48 h
MDA-N = system: MDA-N
SN12C = system: SN12C
HT-29 = system: HT-29
UACC-257 = system: UACC-257
OVCAR-5 = system: OVCAR-5
MCF7 = system: MCF7
COLO 205 = system: COLO 205
SW-620 = system: SW-620
K562 = system: K562
RPMI-8226 = system: RPMI-8226
SNB-75 = system: SNB-75
MDA-MB-435 = system: MDA-MB-435
SNB-19 = system: SNB-19
Hs-578T = system: Hs-578T
NCI-H460 = system: NCI-H460
UACC-62 = system: UACC-62
SF-268 = system: SF-268
U-251 = system: U-251
OVCAR-4 = system: OVCAR-4

Measured: GI50

O=c1c(Cc2ccccc2Cc2c(O)oc3ccccc3c2=O)c(O)oc2ccccc12
inactive: MDA-N > 100 µM | SN12C > 100 µM | HT-29 > 100 µM | UACC-257 > 100 µM | OVCAR-5 > 100 µM | MCF7 > 100 µM | COLO 205 > 100 µM | SW-620 > 100 µM | K562 > 100 µM | RPMI-8226 > 100 µM | SNB-75 31.6 µM | MDA-MB-435 > 100 µM | SNB-19 > 100 µM | Hs-578T > 100 µM | NCI-H460 > 100 µM | UACC-62 > 100 µM | SF-268 > 100 µM | U-251 > 100 µM | OVCAR-4 > 100 µM

O=C(O)c1cc(/N=N/c2ccc([N+](=O)[O-])cc2)ccc1O
inactive: MDA-N 43.9 µM | SN12C 30.8 µM | HT-29 28.8 µM | UACC-257 24 µM | OVCAR-5 30.3 µM | MCF7 30.8 µM | COLO 205 30.8 µM | SW-620 36 µM | K562 29.6 µM | RPMI-8226 21.1 µM | SNB-75 38.7 µM | MDA-MB-435 34.9 µM | SNB-19 30.9 µM | Hs-578T 37.6 µM | NCI-H460 28.2 µM | UACC-62 31.3 µM | SF-268 35.6 µM | U-251 21.6 µM | OVCAR-4 23.9 µM

COc1ccc2c(=O)cc(-c3ccncc3)oc2c1OC
inactive: MDA-N 29.2 µM | SN12C 29.6 µM | HT-29 28.6 µM | UACC-257 33 µM | OVCAR-5 24.6 µM | MCF7 35.7 µM | COLO 205 15 µM | SW-620 31.6 µM | K562 38.3 µM | RPMI-8226 32.2 µM | SNB-75 18.2 µM | MDA-MB-435 31.6 µM | SNB-19 31.4 µM | Hs-578T 15.7 µM | NCI-H460 20.7 µM | UACC-62 14 µM | SF-268 21.8 µM | U-251 30.1 µM | OVCAR-4 46.1 µM

CCCNC(=O)Cn1c(C)cc2ccccc21
inactive: MDA-N > 100 µM | SN12C > 100 µM | HT-29 > 100 µM | UACC-257 > 100 µM | OVCAR-5 > 100 µM | MCF7 > 100 µM | COLO 205 > 100 µM | SW-620 > 100 µM | K562 > 100 µM | RPMI-8226 > 100 µM | SNB-75 > 100 µM | MDA-MB-435 > 100 µM | SNB-19 > 100 µM | Hs-578T > 100 µM | NCI-H460 > 10 µM | UACC-62 > 100 µM | SF-268 > 100 µM | U-251 > 100 µM | OVCAR-4 > 100 µM

Cc1n[nH]c(=O)n1/N=C\CC/C=N\n1c(C)n[nH]c1=O
inactive: MDA-N > 100 µM | SN12C > 100 µM | HT-29 > 100 µM | UACC-257 > 100 µM | OVCAR-5 > 100 µM | MCF7 > 100 µM | COLO 205 > 100 µM | SW-620 > 100 µM | K562 > 100 µM | RPMI-8226 > 100 µM | SNB-75 > 100 µM | MDA-MB-435 > 100 µM | SNB-19 > 100 µM | Hs-578T > 100 µM | UACC-62 > 100 µM | SF-268 > 100 µM | U-251 > 100 µM | OVCAR-4 > 100 µM

O=C1NC(=S)N/C1=C\c1cccs1
inactive: MDA-N > 100 µM | SN12C > 100 µM | HT-29 > 100 µM | OVCAR-5 > 100 µM | MCF7 > 100 µM | COLO 205 > 100 µM | SW-620 > 100 µM | K562 > 100 µM | RPMI-8226 > 100 µM | SNB-75 > 100 µM | MDA-MB-435 > 100 µM | SNB-19 > 100 µM | Hs-578T > 100 µM | UACC-62 > 100 µM | SF-268 > 100 µM | U-251 > 100 µM | OVCAR-4 > 100 µM

Cc1ccc(/C=N/Nc2nc3ccccc3s2)s1
inactive: MDA-N > 100 µM | SN12C 12.6 µM | HT-29 40.8 µM | UACC-257 > 100 µM | OVCAR-5 > 100 µM | MCF7 5.53 µM | COLO 205 > 100 µM | SW-620 > 100 µM | K562 31.5 µM | RPMI-8226 > 100 µM | SNB-75 46.3 µM | MDA-MB-435 > 100 µM | SNB-19 51.9 µM | Hs-578T 66.1 µM | UACC-62 74.6 µM | SF-268 49.8 µM | U-251 81.1 µM | OVCAR-4 34.4 µM

C[C@]1(CO)[C@H]2CC[C@@]34C=C[C@@](CO)(CC[C@H]3[C@]2(C)CC[C@H]1O)C4
inactive: MDA-N 34.2 µM | SN12C > 100 µM | HT-29 > 100 µM | UACC-257 87.5 µM | OVCAR-5 > 100 µM | MCF7 59.4 µM | COLO 205 26.4 µM | SW-620 > 100 µM | RPMI-8226 27 µM | SNB-75 17.9 µM | MDA-MB-435 77.6 µM | SNB-19 15 µM | Hs-578T 55.7 µM | UACC-62 94.6 µM | SF-268 47.3 µM | U-251 63 µM | OVCAR-4 13.3 µM

CCC1CCC2c3c([nH]c4ccccc34)C3C(=O)N(c4ccc(OC)cc4)C(=O)C3C2C1 (stereo unspecified)
inactive: MDA-N 55.7 µM | SN12C 68.9 µM | HT-29 42.3 µM | UACC-257 > 100 µM | MCF7 36.6 µM | COLO 205 74.1 µM | SW-620 17.7 µM | K562 22 µM | RPMI-8226 55 µM | SNB-75 19.5 µM | MDA-MB-435 55.5 µM | SNB-19 28.3 µM | Hs-578T 22.2 µM | NCI-H460 30.4 µM | UACC-62 61.8 µM | SF-268 52.5 µM | U-251 18.7 µM | OVCAR-4 14.9 µM

CCOc1cc(NC(C)=O)ccc1C(=O)NN1C(=O)C(Cl)C1c1ccc(O)c(OC)c1 (stereo unspecified)
inactive: MDA-N 14.2 µM | SN12C 13.3 µM | HT-29 16.3 µM | UACC-257 11.8 µM | OVCAR-5 19.1 µM | MCF7 13.8 µM | COLO 205 15.6 µM | SW-620 21.4 µM | K562 5.11 µM | RPMI-8226 17.3 µM | SNB-75 11.8 µM | MDA-MB-435 12.6 µM | SNB-19 15.8 µM | Hs-578T 16.7 µM | NCI-H460 16.4 µM | UACC-62 12.3 µM | SF-268 14.7 µM | OVCAR-4 12.8 µM

O=C1NC(N2CCCC(CO)C2)=N/C1=C\c1ccc(O)cc1 (stereo unspecified)
inactive: MDA-N > 100 µM | SN12C > 100 µM | HT-29 > 100 µM | UACC-257 > 100 µM | OVCAR-5 > 100 µM | MCF7 > 100 µM | COLO 205 > 100 µM | SW-620 > 100 µM | K562 > 100 µM | RPMI-8226 > 100 µM | SNB-75 > 100 µM | MDA-MB-435 > 100 µM | SNB-19 > 100 µM | Hs-578T > 100 µM | UACC-62 > 100 µM | SF-268 > 100 µM | U-251 > 100 µM | OVCAR-4 > 100 µM

Cc1cc2[n-][n+]3ncc(-c4ccccc4)n3c2cc1[N+](=O)[O-]
inactive: MDA-N > 10 µM | SN12C > 10 µM | UACC-257 > 100 µM | OVCAR-5 > 100 µM | MCF7 > 100 µM | COLO 205 > 100 µM | SW-620 > 100 µM | K562 > 100 µM | RPMI-8226 > 100 µM | SNB-75 > 100 µM | MDA-MB-435 > 100 µM | SNB-19 > 100 µM | Hs-578T > 100 µM | NCI-H460 > 100 µM | UACC-62 > 100 µM | U-251 > 100 µM | OVCAR-4 > 100 µM

OC1CN=C2c3ccccc3C(O)(c3ccc(Cl)cc3)N2C1 (stereo unspecified)
inactive: MDA-N 35.4 µM | SN12C 57.7 µM | HT-29 32.9 µM | OVCAR-5 27 µM | MCF7 48.2 µM | COLO 205 19.5 µM | SW-620 > 100 µM | K562 35.6 µM | RPMI-8226 50.7 µM | SNB-75 19.8 µM | MDA-MB-435 65.8 µM | SNB-19 60 µM | Hs-578T 88.5 µM | NCI-H460 43.9 µM | UACC-62 45.4 µM | SF-268 32 µM | U-251 66.7 µM | OVCAR-4 > 100 µM

C=C1C2CC[C@@](C)(O)C2[C@H]2OC(=O)C(=C)[C@@H]2C[C@H]1O (stereo partly specified)
inactive: MDA-N 24.5 µM | SN12C 18.5 µM | HT-29 16.1 µM | UACC-257 16.3 µM | OVCAR-5 29 µM | MCF7 14.2 µM | COLO 205 15 µM | SW-620 29.7 µM | K562 28.6 µM | RPMI-8226 13.1 µM | SNB-75 43.4 µM | MDA-MB-435 26 µM | SNB-19 48.6 µM | Hs-578T 23.4 µM | UACC-62 16 µM | SF-268 49.2 µM | U-251 31.9 µM | OVCAR-4 14.9 µM

O=C(NCc1ccccc1Cl)c1c(O)c2ccccc2[nH]c1=O
inactive: MDA-N 79.1 µM | SN12C > 100 µM | HT-29 54.5 µM | UACC-257 > 100 µM | OVCAR-5 > 100 µM | MCF7 > 100 µM | COLO 205 39.8 µM | SW-620 24.9 µM | K562 > 100 µM | RPMI-8226 57.8 µM | SNB-75 21.6 µM | MDA-MB-435 36 µM | SNB-19 39.4 µM | Hs-578T 25.9 µM | NCI-H460 18.7 µM | SF-268 72.1 µM | U-251 18.7 µM | OVCAR-4 8.53 µM
